Experimental data taken from US20260069693A1, “UROLITHINS AND T-CELL MEDIATED IMMUNE RESPONSE” (priority 2022, published 2026).

System: OT-1 T cells
Assay: adoptive transfer of UA-treated OT-1 T cells, engraftment
Assay type: in vivo, Rag1^−/− mice
Settings: seven days after transfer of T cells stimulated 48 h with UA (25 μM) vs DMSO
Excerpt: Adoptive cell transfer (ACT) represents the infusion of antigen-specific leukocytes with direct antitumor activity, yet identification, selection and expansion of lymphocyte subsets harboring optimal antitumor qualities remains one of the most crucial challenges (Rosenberg and Restifo, 2015). ACT benefits especially from minimally differentiated cells due to their improved survival and long-term potential to generate unexhausted effector cells (Luca Gattinoni et al; Mo et al., 2021; Roberto et al., 2015). In particular, CD8^+ T cells restricted in a stem-like state have been associated with enhanced tumor suppressive properties upon adoptive cell transfer (Enrico Lugli et al; Verma et al., 2021). […] The inventors cultured T cells from OT-1 donor mice (FIG. 3A) for 48 hours in the presence of UA or vehicle control, followed by adoptive transfer into immunodeficient Rag1^−/− mice. […] Moreover, consistent with an improved memory response, animals receiving UA-pretreated T cells contained less Tim3^HiPD1^Hi terminally exhausted CD8^+ T cells in the TME (FIG. 3I). Thus, UA augments immune-mediated antitumor memory upon adoptive cell transfer.
For adoptive cell transfer transfer, purified splenic T cell from OT1 mice were isolated and activated using aCD3/aCD28 stimulation beads for 48 h. […] Tumor growth was assessed as described above. […]

O=c1oc2cc(O)ccc2c2ccc(O)cc12 [UA, Urolithin A]
number of engrafted (splenic) CD8+ T cells: significantly higher
